Test system: 967376-340-R-J2-PDC multicell spheroid viability
Experiment: Anticancer human tumor 967376-340-R-J2-PDC patient-derived colon adenocarcinoma cell line growth inhibition [PI3K]
Conditions: for IC50: curve of first compound; for viability, T/C: stronger effect = lower value
Text: Combinatorial screen of targeted agents with the PI3K inhibitors inavolisib, alpelisib, duvelisib, and copanlisib in multi-cell type tumor spheroids
A high-throughput screen of multi-cell type tumor spheroids was designed to identify active combinations of targeted small molecules and PI3K pathway inhibitors. Complex spheroids include a stromal component modeled by human endothelial cells (HUVEC) and fibroblasts modeled by human mesenchymal stem cells (MSCs). The concentration ranges selected for each drug and investigational agent were based upon clinically achievable concentrations if the clinical Cmax of the agent was known.
Compounds. The drugs and investigational agents: inavolisib (NSC800729), alpelisib (NSC765974), duvelisib (NSC772469), copanlisib (NSC816437), ipatasertib (NSC767898), afuresertib (NSC778305), talazoparib (NSC767125), sapanisertib (NSC764658), selumetinib (NSC741078), tovorafenib (DAY101, NSC766906), vemurafenib (NSC761431), ravoxertinib (NSC781343), sotorasib (NSC818433), MRTX1133 (NSC 836407), abemaciclib (NSC 768073), palbociclib (NSC758247), venetoclax (NSC 766270), SY5609 (NSC837396), enzalutamide (NSC755605), and darolutamide (NSC825331), were obtained from the National Cancer Institute (NCI) Developmental Therapeutics Program Chemical Repository. The FDA-approved anticancer drug set is available from the NCI Developmental Therapeutics Program. […] The stock solutions were prepared in dimethyl sulfoxide (DMSO, Sigma-Aldrich, St. Louis, MO, cat. D2650) at 800-fold the tested concentration and stored at -70 degrees C prior to their use. All drugs and investigational agents were tested over a range starting from a high concentration at or near the clinical Cmax and decreasing in half-log increments. If the clinical Cmax for an agent had not been determined, the highest concentration tested was 10 microM.
Cell Culture. All cells were maintained in an incubator at 37 degrees C and 5% CO2 with 95% humidity. The PDC lines were cultured according to standard operating procedures established by the NCI PDMR (https://pdmr.cancer.gov/sops/default.htm). All PDCs were thawed and cultured in Matrigel-coated flasks prepared with a working solution of 1X Ham's F-12 nutrient mix, without supplementation (Invitrogen, Waltham, MA, cat. 11765054), 100 U/mL penicillin-streptomycin (Invitrogen, cat. 15140122), and 2.5% Matrigel (Corning Inc., Corning, NY, cat. 354248) for the first three passages. The 354836-022-R-J1-PDC, 475296-252-R-J1-PDC, and 997726-040-R-J2-PDC lines were cultured in 6A media, which includes advanced DMEM/F-12 (Thermo Fisher Scientific, cat. 12634028), 10 mM HEPES (Thermo Fisher Scientific, cat. 15630080), 1X GlutaMAX supplement (Thermo Fisher Scientific, cat. 35050061), 0.1 mg/mL primocin (InvivoGen, San Diego, CA, cat. ant-pm-2), 10% defined fetal bovine serum, heat inactivated (HyClone Laboratories Inc., Logan, UT, cat. SH30070.03HI), 50% L-WRN conditioned media (ATCC, cat. CRL-3276), 1.25 mM N-Acetyl-L-cysteine (Sigma-Aldrich, cat. A9165), 10 mM nicotinamide (Sigma-Aldrich, cat. N0636), 1X B-27 supplement (Thermo Fisher Scientific, cat. 17504044), 1X N-2 supplement (Thermo Fisher Scientific, cat. 17502048), and 10 microM Y-27632 dihydrochloride (Tocris Bioscience, Bristol, United Kingdom, cat. 1254). The 624824-186-R-J2-PDC line was cultured in 6C/Colon 1B media, which includes all 6A media components plus 50 ng/mL human EGF recombinant protein (Thermo Fisher Scientific, cat. PHG0311). […]

[1] = second compound 0.00316 µM, first compound 0.0316 µM
[2] = second compound 0.00316 µM, first compound 0.1 µM
[3] = second compound 0.01 µM, first compound 0.0316 µM
[4] = second compound 0.01 µM, first compound 0.1 µM
[5] = second compound 0.0316 µM, first compound 0.0316 µM
[6] = second compound 0.0316 µM, first compound 0.1 µM
[7] = second compound 0.1 µM, first compound 0.0316 µM
[8] = second compound 0.1 µM, first compound 0.1 µM
[9] = second compound 0.316 µM, first compound 0.0316 µM
[10] = second compound 0.316 µM, first compound 0.1 µM
[11] = second compound 1 µM, first compound 0.0316 µM
[12] = second compound 1 µM, first compound 0.1 µM
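Also: spheroids exposed to agents for 7 days before read-out.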
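For viability, T/C in this document: luminescence used as surrogate of cell viability.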

`CC(C)n1nc(-c2ccc3oc(N)nc3c2)c2c(N)ncnc21` + CC(Nc1ccc2c(c1)OCCn1cc(N3C(=O)OCC3C(F)F)nc1-2)C(N)=O was tested, and the IC50 (second compound 0.00316 µM) was over 100 nM, the IC50 (second compound 0.01 µM) was over 100 nM and the IC50 (second compound 0.0316 µM) was 71.9 nM. The IC50 (second compound 0.1 µM) was 66.5 nM, the IC50 (second compound 0.316 µM) was 20.7 nM and the IC50 (second compound 1 µM) was 36.9 nM. The viability, T/C (second compound 0.00316 µM, first compound 0.000316 µM) was 82.3%, the viability, T/C (second compound 0.00316 µM, first compound 0.001 µM) was 69.7% and the viability, T/C (second compound 0.00316 µM, first compound 0.00316 µM) was 69.4%. The viability, T/C (second compound 0.00316 µM, first compound 0.01 µM) was 76.4%, the viability, T/C [1] was 73.1% and the viability, T/C [2] was 51.9%. It also gave a viability, T/C (second compound 0.01 µM, first compound 0.000316 µM) of 106%, a viability, T/C (second compound 0.01 µM, first compound 0.001 µM) of 90.1% and a viability, T/C (second compound 0.01 µM, first compound 0.00316 µM) of 67.3%. For the same compound, the viability, T/C (second compound 0.01 µM, first compound 0.01 µM) was 68.7%, the viability, T/C [3] was 68.1% and the viability, T/C [4] was 43.3%. The viability, T/C (second compound 0.0316 µM, first compound 0.000316 µM) was 81.1%, the viability, T/C (second compound 0.0316 µM, first compound 0.001 µM) was 87% and the viability, T/C (second compound 0.0316 µM, first compound 0.00316 µM) was 65.4%. For the same compound, the viability, T/C (second compound 0.0316 µM, first compound 0.01 µM) was 74.4%, the viability, T/C [5] was 60.5% and the viability, T/C [6] was 45.2%. For the same compound, the viability, T/C (second compound 0.1 µM, first compound 0.000316 µM) was 67.3%, the viability, T/C (second compound 0.1 µM, first compound 0.001 µM) was 79.8% and the viability, T/C (second compound 0.1 µM, first compound 0.00316 µM) was 91.5%. The viability, T/C (second compound 0.1 µM, first compound 0.01 µM) was 69.5%, the viability, T/C [7] was 56.9% and the viability, T/C [8] was 46.3%. For the same compound, the viability, T/C (second compound 0.316 µM, first compound 0.000316 µM) was 57.7%, the viability, T/C (second compound 0.316 µM, first compound 0.001 µM) was 61.9% and the viability, T/C (second compound 0.316 µM, first compound 0.00316 µM) was 54.6%. It also gave a viability, T/C (second compound 0.316 µM, first compound 0.01 µM) of 64.7%, a viability, T/C [9] of 44.3% and a viability, T/C [10] of 33.1%. It also gave a viability, T/C (second compound 1 µM, first compound 0.000316 µM) of 53.9%, a viability, T/C (second compound 1 µM, first compound 0.001 µM) of 54.8% and a viability, T/C (second compound 1 µM, first compound 0.00316 µM) of 63.8%. For the same compound, the viability, T/C (second compound 1 µM, first compound 0.01 µM) was 47.5%, the viability, T/C [11] was 54% and the viability, T/C [12] was 38.4%.

With `CCCS(=O)(=O)Nc1ccc(F)c(C(=O)c2c[nH]c3ncc(-c4ccc(Cl)cc4)cc23)c1F` + CC(Nc1ccc2c(c1)OCCn1cc(N3C(=O)OCC3C(F)F)nc1-2)C(N)=O the IC50 (second compound 0.00316 µM) was over 10000 nM, the IC50 (second compound 0.01 µM) was 9810 nM and the IC50 (second compound 0.0316 µM) was over 10000 nM. The IC50 (second compound 0.1 µM) was 8120 nM, the IC50 (second compound 0.316 µM) was over 10000 nM and the IC50 (second compound 1 µM) was 3830 nM. For the same compound, the viability, T/C [1] was 87.1%, the viability, T/C [2] was 77.7% and the viability, T/C (second compound 0.00316 µM, first compound 0.316 µM) was 98.3%. The viability, T/C (second compound 0.00316 µM, first compound 1 µM) was 60.2%, the viability, T/C (second compound 0.00316 µM, first compound 3.16 µM) was 81.4% and the viability, T/C (second compound 0.00316 µM, first compound 10 µM) was 53.4%. For the same compound, the viability, T/C [3] was 95.5%, the viability, T/C [4] was 86.5% and the viability, T/C (second compound 0.01 µM, first compound 0.316 µM) was 88.7%. For the same compound, the viability, T/C (second compound 0.01 µM, first compound 1 µM) was 70.3%, the viability, T/C (second compound 0.01 µM, first compound 3.16 µM) was 89.4% and the viability, T/C (second compound 0.01 µM, first compound 10 µM) was 49.6%. For the same compound, the viability, T/C [5] was 72%, the viability, T/C [6] was 79.6% and the viability, T/C (second compound 0.0316 µM, first compound 0.316 µM) was 65.2%. It also gave a viability, T/C (second compound 0.0316 µM, first compound 1 µM) of 93.3%, a viability, T/C (second compound 0.0316 µM, first compound 3.16 µM) of 91.9% and a viability, T/C (second compound 0.0316 µM, first compound 10 µM) of 67.8%. It also gave a viability, T/C [7] of 69.9%, a viability, T/C [8] of 73.8% and a viability, T/C (second compound 0.1 µM, first compound 0.316 µM) of 80.3%. For the same compound, the viability, T/C (second compound 0.1 µM, first compound 1 µM) was 77.9%, the viability, T/C (second compound 0.1 µM, first compound 3.16 µM) was 81.5% and the viability, T/C (second compound 0.1 µM, first compound 10 µM) was 44.1%. It also gave a viability, T/C [9] of 64.5%, a viability, T/C [10] of 61.3% and a viability, T/C (second compound 0.316 µM, first compound 0.316 µM) of 73.8%. It also gave a viability, T/C (second compound 0.316 µM, first compound 1 µM) of 76.2%, a viability, T/C (second compound 0.316 µM, first compound 3.16 µM) of 75.2% and a viability, T/C (second compound 0.316 µM, first compound 10 µM) of 37.6%. The viability, T/C [11] was 61.5%, the viability, T/C [12] was 55.5% and the viability, T/C (second compound 1 µM, first compound 0.316 µM) was 58.9%. It also gave a viability, T/C (second compound 1 µM, first compound 1 µM) of 56%, a viability, T/C (second compound 1 µM, first compound 3.16 µM) of 52.6% and a viability, T/C (second compound 1 µM, first compound 10 µM) of 39.5%.
